Laboratory results reported in US20240059691A1 (KALVISTA PHARMACEUTICALS LIMITED, priority 2020, published 2024).

The molecules below were run against Human Factor XIIa (Homo sapiens (Human), UniProt P00748) (assay: Determination of FXIIa inhibition (fluorogenic substrate H-DPro-Phe-Arg-AFC, IC50 assay)). Conditions: substrate H-DPro-Phe-Arg-AFC at Km, 25° C.; class scale A-G.
Type: biochemical
Method: Determination of FXIIa Inhibition
In vitro inhibition of Factor XIIa was determined using an IC50 assay based on standard literature methods (see e.g Baeriswyl et al., ACS Chem. Biol., 2015, 10 (8) 1861; Bouckaert et al., European Journal of Medicinal Chemistry 110 (2016) 181). Human Factor XIIa (Enzyme Research Laboratories) was incubated at 25° C. with the fluorogenic substrate H-DPro-Phe-Arg-AFC (Peptide Protein Science) and various concentrations of the test compound. Protease activity was measured by monitoring the accumulation of liberated fluorescence from the substrate over 5 min at 25° C. The linear rate of fluorescence increase per minute was expressed as percentage (%) activity. The Km for the cleavage of the substrate by FXIIa was determined by standard transformation of the Michaelis-Menten equation. The compound inhibitor assays were performed at substrate Km concentration. IC50 values were calculated as the concentration of inhibitor giving 50% inhibition (IC50) of the uninhibited enzyme activity (100%).

Sequence of Human Factor XIIa (P00748 373-615): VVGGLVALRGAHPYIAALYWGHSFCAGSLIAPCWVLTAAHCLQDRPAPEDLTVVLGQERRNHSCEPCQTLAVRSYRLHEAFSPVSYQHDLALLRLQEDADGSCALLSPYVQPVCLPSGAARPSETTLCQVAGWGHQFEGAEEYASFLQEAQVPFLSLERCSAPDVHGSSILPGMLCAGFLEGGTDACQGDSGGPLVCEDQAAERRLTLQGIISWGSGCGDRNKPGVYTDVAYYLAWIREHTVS

IC50 [nM] | SMILES
10 to 100 | COCC1c2nnc(C(F)(F)F)n2CCN1c1cc(C)c(CNc2cccc3c(N)nccc23)cn1 (centres unmarked) [Example 1319, N5-((6-(8-(methoxymethyl)-3-(trifluoromethyl)-5,6-dihydro-[1,2,4]triazolo[4,3-a]pyrazin-7(8H)-yl)-4-methylpyridin-3-yl)methyl)isoquinoline-1,5-diamine]
10 to 100 | Nc1nccc2c(NCc3ccc(N4CCn5c(nnc5C(F)(F)F)C4)cc3F)cccc12 [Example 2256, N5-(2-Fluoro-4-(3-(trifluoromethyl)-5,6-dihydro-[1,2,4]triazolo[4,3-a]pyrazin-7(8H)-yl)benzyl)isoquinoline-1,5-diamine]
3000 to 10000 | CN(Cc1ccc(N2CCn3c(nnc3C(F)(F)F)C2)nc1)c1cccc2c(N)nccc12 [Example 1332, N5-methyl-N5-((6-(3-(trifluoromethyl)-5,6-dihydro-[1,2,4]triazolo[4,3-a]pyrazin-7(8H)-yl)pyridin-3-yl)methyl)isoquinoline-1,5-diamine]
10000 to 40000 | CN1CCC(COc2ccc(CNc3ccc4cncc(CO)c4c3)cn2)CC1 [Example 1026, (6-(((6-((1-Methylpiperidin-4-yl)methoxy)pyridin-3-yl)methyl)amino)isoquinolin-4-yl)methanol]
3000 to 10000 | CN1CCC(COc2ccc(CCc3cccc4c(N)nccc34)cn2)CC1 [Example 1019, 5-(2-{6-[(1-methylpiperidin-4-yl)methoxy]pyridin-3-yl}ethyl)isoquinolin-1-amine]
300 to 1000 | CN1CC2(CC(OCc3ccc(CNc4ccc5c(N)nccc5c4)c(F)c3)CS2)C1 (centres unmarked) [Example 2252, 6-N-({2-fluoro-4-[({2-methyl-5-thia-2-azaspiro[3.4]octan-7-yl}oxy)methyl]phenyl}methyl)isoquinoline-1,6-diamine]
300 to 1000 | CN1CCC(COc2ccc(CNc3ccc4c(N)nccc4c3)cn2)CC1=O (centres unmarked) [Example 1015, 4-{[(5-{[(1-aminoisoquinolin-6-yl)amino]methyl}pyridin-2-yl)oxy]methyl}-1-methylpiperidin-2-one]
10000 to 40000 | CN1CCC(CNc2ccc(CNc3cc(C(F)(F)F)cc4[nH]ccc34)cn2)CC1 [Example 1237, N-((6-(((1-methylpiperidin-4-yl)methyl)amino)pyridin-3-yl)methyl)-6-(trifluoromethyl)-1H-indol-4-amine]
300 to 1000 | CN1CCC(CCOc2ccc(CNc3ccc4c(N)nccc4c3)cn2)CC1 [Example 1032, 6-N-({6-[2-(1-methylpiperidin-4-yl)ethoxy]pyridin-3-yl}methyl)isoquinoline-1,6-diamine]
100 to 300 | CCC1c2nnc(C(F)(F)F)n2CCN1c1cc(C)c(CNc2cccc3c(N)nccc23)cn1 (single isomer, unassigned) [Example 1321, (S*)-N5-((6-(8-ethyl-3-(trifluoromethyl)-5,6-dihydro-[1,2,4]triazolo[4,3-a]pyrazin-7(8H)-yl)-4-methylpyridin-3-yl)methyl)isoquinoline-1,5-diamine]
100 to 300 | Nc1nccc2cc(NCc3ccc(OC[C@H]4CCn5ccnc5C4)nc3)ccc12 (single isomer, unassigned) [Example 1024, 6-N-({6-[(7S*)-5H,6H,7H,8H-imidazo[1,2-a]pyridin-4-yl}-ylmethyl)isoquinoline-1,6-diamine]
10000 to 40000 | CN1CCC(CNc2ccc(CNc3cc(Cl)cc4[nH]ccc34)cn2)CC1 [Example 1241, 6-chloro-N-((6-(((1-methylpiperidin-4-yl)methyl)amino)pyridin-3-yl)methyl)-1H-indol-4-amine]
10 to 100 | CC1c2nnc(C(F)(F)F)n2CCN1c1cnc(CNc2cccc3c(N)nccc23)c(F)c1 (centres unmarked) [Example 9008, N5-((3-fluoro-5-(8-methyl-3-(trifluoromethyl)-5,6-dihydro-[1,2,4]triazolo[4,3-a]pyrazin-7(8H)-yl)pyridin-2-yl)methyl)isoquinoline-1,5-diamine]
10000 to 40000 | Cc1cc(N2CCn3c(nnc3C(F)(F)F)C2)ncc1CNc1ccnc2c1CCN2 [Example 1339, N-((4-methyl-6-(3-(trifluoromethyl)-5,6-dihydro-[1,2,4]triazolo[4,3-a]pyrazin-7(8H)-yl)pyridin-3-yl)methyl)-2,3-dihydro-1H-pyrrolo[2,3-b]pyridin-4-amine]
300 to 1000 | CN1CCC(F)(COc2cc(CNc3ccc4c(N)nccc4c3)ccn2)CC1 [Example 4415, 6-N-({2-[(4-fluoro-1-methylpiperidin-4-yl)methoxy]pyridin-4-yl}methyl)isoquinoline-1,6-diamine]
1000 to 3000 | Nc1nccc2cc(NCc3ccc(OCC4CCn5cc(C(F)(F)F)nc5C4)nc3)ccc12 (centres unmarked) [Example 1028, N6-((6-((2-(trifluoromethyl)-5,6,7,8-tetrahydroimidazo[1,2-a]pyridin-7-yl)methoxy)pyridin-3-yl)methyl)isoquinoline-1,6-diamine]

IC50 [nM] | SMILES
10000 to 40000 | Nc1nccc2c(NCc3ccc(N4CCn5c(nnc5C(F)(F)F)C4)nc3)nccc12 [Example 1318, N1-((6-(3-(trifluoromethyl)-5,6-dihydro-[1,2,4]triazolo[4,3-a]pyrazin-7(8H)-yl)pyridin-3-yl)methyl)-2,6-naphthyridine-1,5-diamine]
1000 to 3000 | Nc1nccc2cc(NCc3ccnc(OCC4CCn5cc(C(F)(F)F)nc5C4)c3)ccc12 (centres unmarked) [Example 4266, 6-N-[(2-{[2-(trifluoromethyl)-5H,6H,7H,8H-imidazo[1,2-a]pyridin-7-yl]methoxy}pyridin-4-yl)methyl]isoquinoline-1,6-diamine]
10000 to 40000 | Nc1nccc2c(NCc3cnc(N4CCn5c(nnc5C(F)(F)F)C4)c(CO)c3)cccc12 [Example 1335, (5-(((1-aminoisoquinolin-5-yl)amino)methyl)-2-(3-(trifluoromethyl)-5,6-dihydro-[1,2,4]triazolo[4,3-a]pyrazin-7(8H)-yl)pyridin-3-yl)methanol]
1000 to 3000 | Cc1cc(N2CCn3c(nnc3C(F)(F)F)C2C)cnc1CNc1cccc2c(N)nccc12 (single isomer, unassigned) [Example 1346, (S*)-N5-((3-methyl-5-(8-methyl-3-(trifluoromethyl)-5,6-dihydro-[1,2,4]triazolo[4,3-a]pyrazin-7(8H)-yl)pyridin-2-yl)methyl)isoquinoline-1,5-diamine]
100 to 300 | Nc1nccc2cc(NCc3ccnc(OC[C@@H]4CCn5ccnc5C4)c3)ccc12 (single isomer, unassigned) [Example 4412, 6-N-({2-[(7R*)-5H,6H,7H,8H-imidazo[1,2-a]pyridin-7-ylmethoxy]pyridin-4-yl}methyl)isoquinoline-1,6-diamine]
100 to 300 | Cc1cc(N2CCn3c(nnc3C(F)(F)F)C2)ccc1CNc1cccc2c(N)nccc12 [Example 2257, N5-(2-methyl-4-(3-(trifluoromethyl)-5,6-dihydro-[1,2,4]triazolo[4,3-a]pyrazin-7(8H)-yl)benzyl)isoquinoline-1,5-diamine]
300 to 1000 | CN1CCC(OCc2ccc(S(=O)(=O)Nc3ccc4c(N)nccc4c3)cc2)CC1 [Example 2210, N-(1-aminoisoquinolin-6-yl)-4-(((1-methylpiperidin-4-yl)oxy)methyl)benzenesulfonamide]
100 to 300 | COc1nc(OCC2CCN(C)CC2)ccc1CNc1ccc2c(N)nccc2c1 [Example 1027, N6-((2-methoxy-6-((1-methylpiperidin-4-yl)methoxy)pyridin-3-yl)methyl)isoquinoline-1,6-diamine]
300 to 1000 | CCc1nc(N2CCn3c(nnc3C(F)(F)F)C2)ccc1CNc1cccc2c(N)nccc12 [Example 1336, N5-((2-ethyl-6-(3-(trifluoromethyl)-5,6-dihydro-[1,2,4]triazolo[4,3-a]pyrazin-7(8H)-yl)pyridin-3-yl)methyl)isoquinoline-1,5-diamine]
10000 to 40000 | CCc1cc2c(NCc3ccc(NCC4CCN(C)CC4)nc3)ccnc2[nH]1 [Example 1239, 2-ethyl-N-((6-(((1-methylpiperidin-4-yl)methyl)amino)pyridin-3-yl)methyl)-1H-pyrrolo[2,3-b]pyridin-4-amine]
1000 to 3000 | Nc1nccc2cc(NCc3ccc(OCCCn4ccnc4)nc3)ccc12 [Example 1031, 6-N-({6-[3-(imidazol-1-yl)propoxy]pyridin-3-yl}methyl)isoquinoline-1,6-diamine]
100 to 300 | Nc1nccc2cc(NCc3ccc(OCC4CCn5ccnc5C4)nc3)ccc12 (single isomer, unassigned) [Example 1023, 6-N-({6-[(7R*)-5H,6H,7H,8H-imidazo[1,2-a]pyridin-7-ylmethoxy]pyridin-3-yl}methyl)isoquinoline-1,6-diamine]
300 to 1000 | Nc1nccc2cc(NCc3ccnc(OCC4CCn5cnnc5C4)c3)ccc12 (centres unmarked) [Example 4411, 6-N-[(2-{5H,6H,7H,8H-[1,2,4]triazolo[4,3-a]pyridin-7-ylmethoxy}pyridin-4-yl)methyl]isoquinoline-1,6-diamine]
300 to 1000 | Cn1ccnc1CCCOc1ccc(CNc2ccc3c(N)nccc3c2)cn1 [Example 1025, 6-N-({6-[3-(1-methylimidazol-2-yl)propoxy]pyridin-3-yl}methyl)isoquinoline-1,6-diamine]
3000 to 10000 | CN1CCC(COc2cc(CN(C)c3cccc4c(N)nccc34)ccn2)CC1 [Example 4419, N5-methyl-N5-((2-((1-methylpiperidin-4-yl)methoxy)pyridin-4-yl)methyl)isoquinoline-1,5-diamine]

SMILES | IC50 [nM]
CN1C[C@@H]2C(COc3ccc(CNc4ccc5c(N)nccc5c4)cn3)[C@@H]2C1 (stereo partly drawn) [Example 1175, 6-N-[(6-{[(1R,5S,6S)-3-methyl-3-azabicyclo[3.1.0]hexan-6-yl]methoxy}pyridin-3-yl)methyl]isoquinoline-1,6-diamine] | 300 to 1000
